Entries after “also recorded” stand apart in the source; their conditions may differ.
Tests used:
U20S cells (ATCC HTB-96) = assay: Effect of cell cycle blocking agents on GFP fluorescence from cell cycle phase marker using transiently transfected cells; assay type: cell-based; details: U20S cells transiently transfected with cyclin B1 promoter/D-box/CRS-GFP reporter; 24 hours exposure; confocal scanning imager (FIG. 5)
Protocol: U20S cells (ATCC HTB-96) were cultured in wells of a 96 well microtitre plate. Cells were transfected with a cell cycle reporter construct prepared according to Example 1, comprising a cyclin B1 promoter operably linked to sequences encoding the cyclin B1 D-box, the cyclin B1 CRS, and GFP in a pCORON4004 vector (Amersham Biosciences) using Fugene 6 (Roche) as the transfection agent.
Following 24 hours of culture, cells were exposed to the specific cell cycle blockers mimosine (blocks at G1/S phase boundary) or demecolcine (blocks in M phase). Control cells were exposed to culture media alone.
Cells were incubated for a further 24 hours and then analysed for nuclear GFP expression using a confocal scanning imager with automated image analysis (IN Cell Analysis System, Amersham Biosciences).

U2-OS cells = assay: Effect of cell cycle inhibiting drugs on GFP expression levels, FACS analysis of stable EGFP reporter cell line; assay type: cell-based; details: 100 ng/ml demecolcine or 1 mM mimosine for 24 hours (FIG. 9)
From the text: The green fluorescent protein reporter sequence in the vector described in example 1 was replaced with enhanced GFP (EGFP; Cormack, B. P. et al, Gene, (1996), 173, 33–38; BD Clontech) by standard methods. The EGFP gene is a brighter form of GFP containing the mutations F64L and S65T. In addition, EGFP contains codons that have been altered to optimise expression in mammalian cells. This new construct was transfected into U2-OS cells and a number of colonies were isolated by selection with geneticin followed by sorting of single cells using a fluorescence activated cell sorter.
The cells were prepared for FACS analysis by standard methods. Briefly the cells were fixed and permeabilised using CytoFix/CytoPerm (Becton Dickinson) according to the manufacturers procedures. The cells were then treated with 50 μg/ml RNAse and 0.4% Triton X-100 and counterstained with 100 μg/ml propidium iodide. The degree of propidium iodide staining is proportional to the amount of DNA in the cell and therefore a measure of the cell cycle phase of the cell. As expected, the degree of red propidium iodide staining and the amount of green GFP fluorescence appear to be proportional in the cells.
The cells prepared in Example 5 were grown in 25 cm^2 flasks and treated with either 100 ng/ml demecolcine (Sigma) or 1 mM mimosine (Sigma) for 24 hours. The cells were then fixed, permeabilised and stained with propidium iodide as described in example 5.

Row | Structure (SMILES) | nuclear GFP fluorescence compared to control cells (U20S cells (ATCC HTB-96)) | cell cycle phase of arrest (FACS, propidium iodide staining) (U2-OS cells) | relative green fluorescence intensity (FACS, FL1H) (U2-OS cells) | cell cycle phase of arrest (FACS, propidium iodide staining) (U2-OS cells; listed as colchicine) | relative green fluorescence intensity (FACS, FL1H) (U2-OS cells; listed as colchicine)
1 | CN[C@H]1CCc2cc(OC)c(OC)c(OC)c2-c2ccc(OC)c(=O)cc21 [demecolcine] | increased fluorescence | arrested in G2/M | brighter than the cells that had been arrested at G1/S | blocked in G2/M | relatively high green fluorescence
2 | NC(Cn1ccc(=O)c(O)c1)C(=O)O (centres unmarked) [mimosine] | decreased fluorescence | partially blocked in G1/S; also recorded: arrested at the G1/S boundary | relatively low green fluorescence |  | 
